In brackets after ≈: the same amount, converted by molar mass. Like-named read-outs stand apart in the source and are kept apart here. Marks after values point to notes of the source that are not given here.
Experiments:
Ishikawa cells = assay: AlkP activity in Ishikawa cells; format: cell-based, human; settings: 72 h, DMSO set to 1
NCI/ADR-RES = assay: NCI five-dose screen, NCI/ADR-RES; format: cell-based; settings: Homo sapiens
HOP-62 = assay: NCI five-dose screen, HOP-62; format: cell-based; settings: Homo sapiens
HS 578T = assay: NCI five-dose screen, HS 578T; format: cell-based; settings: Homo sapiens
NCI-H226 = assay: NCI five-dose screen, NCI-H226; format: cell-based; settings: Homo sapiens
OVCAR-5 = assay: NCI five-dose screen, OVCAR-5; format: cell-based; settings: Homo sapiens
RXF 393 = assay: NCI five-dose screen, RXF 393; format: cell-based; settings: Homo sapiens
SK-MEL-28 = assay: NCI five-dose screen, SK-MEL-28; format: cell-based; settings: Homo sapiens
UACC-257 = assay: NCI five-dose screen, UACC-257; format: cell-based; settings: Homo sapiens
CAKI-1 = assay: NCI five-dose screen, CAKI-1; format: cell-based; settings: Homo sapiens
IGROV1 = assay: NCI five-dose screen, IGROV1; format: cell-based; settings: Homo sapiens, IGROV-1
SK-MEL-2 = assay: NCI five-dose screen, SK-MEL-2; format: cell-based; settings: Homo sapiens
NCI-H23 = assay: NCI five-dose screen, NCI-H23; format: cell-based; settings: Homo sapiens
SNB-19 = assay: NCI five-dose screen, SNB-19; format: cell-based; settings: Homo sapiens
COLO 205 = assay: NCI five-dose screen, COLO 205; format: cell-based; settings: Homo sapiens
HCT-116 = assay: NCI five-dose screen, HCT-116; format: cell-based; settings: Homo sapiens
ACHN = assay: NCI five-dose screen, ACHN; format: cell-based; settings: Homo sapiens
U251 = assay: NCI five-dose screen, U251; format: cell-based; settings: Homo sapiens, U-251
SN12C = assay: NCI five-dose screen, SN12C; format: cell-based; settings: Homo sapiens
MDA-MB-435 = assay: NCI five-dose screen, MDA-MB-435; format: cell-based; settings: Homo sapiens
OVCAR-4 = assay: NCI five-dose screen, OVCAR-4; format: cell-based; settings: Homo sapiens
K-562 = assay: NCI five-dose screen, K-562; format: cell-based; settings: Homo sapiens, K562
HCC-2998 = assay: NCI five-dose screen, HCC-2998; format: cell-based; settings: Homo sapiens
MCF7 = assay: NCI five-dose screen, MCF7; format: cell-based; settings: Homo sapiens
UO-31 = assay: NCI five-dose screen, UO-31; format: cell-based; settings: Homo sapiens
SF-539 = assay: NCI five-dose screen, SF-539; format: cell-based; settings: Homo sapiens
60 NCI tumor cell lines = assay: NCI one-dose screen, mean over 60 tumor cell lines; format: cell-based; settings: Homo sapiens, read-out: mean growth inhibition (%)
SK-MEL-5 = assay: NCI five-dose screen, SK-MEL-5; format: cell-based; settings: Homo sapiens
NCI-H522 = assay: NCI five-dose screen, NCI-H522; format: cell-based; settings: Homo sapiens
MDA-MB-231/ATCC = assay: NCI five-dose screen, MDA-MB-231/ATCC; format: cell-based; settings: Homo sapiens
SF-295 = assay: NCI five-dose screen, SF-295; format: cell-based; settings: Homo sapiens
MOLT-4 = assay: NCI five-dose screen, MOLT-4; format: cell-based; settings: Homo sapiens
MCF-7 = assay: NCI one-dose screen, MCF-7; format: cell-based; settings: Homo sapiens, MCF7, read-out: growth inhibition on MCF-7 (%), 10 μM
UACC-62 = assay: NCI five-dose screen, UACC-62; format: cell-based; settings: Homo sapiens
NCI-H460 = assay: NCI five-dose screen, NCI-H460; format: cell-based; settings: Homo sapiens
RPMI-8226 = assay: NCI five-dose screen, RPMI-8226; format: cell-based; settings: Homo sapiens
SF-268 = assay: NCI five-dose screen, SF-268; format: cell-based; settings: Homo sapiens
A498 = assay: NCI five-dose screen, A498; format: cell-based; settings: Homo sapiens
OVCAR-3 = assay: NCI five-dose screen, OVCAR-3; format: cell-based; settings: Homo sapiens
SNB-75 = assay: NCI five-dose screen, SNB-75; format: cell-based; settings: Homo sapiens
T-47D = assay: NCI five-dose screen, T-47D; format: cell-based; settings: Homo sapiens, T47D
LOX IMVI = assay: NCI five-dose screen, LOX IMVI; format: cell-based; settings: Homo sapiens
MDA-MB-468 = assay: NCI five-dose screen, MDA-MB-468; format: cell-based; settings: Homo sapiens
60 different cell lines = assay: NCI five-dose screen, mean/median over 60 cell lines; format: cell-based; settings: Homo sapiens
SR = assay: NCI five-dose screen, SR; format: cell-based; settings: Homo sapiens
TK-10 = assay: NCI five-dose screen, TK-10; format: cell-based; settings: Homo sapiens
HT29 = assay: NCI five-dose screen, HT29; format: cell-based; settings: Homo sapiens, HT-29
NCI-H322M = assay: NCI five-dose screen, NCI-H322M; format: cell-based; settings: Homo sapiens
EKVX = assay: NCI five-dose screen, EKVX; format: cell-based; settings: Homo sapiens
HOP-92 = assay: NCI five-dose screen, HOP-92; format: cell-based; settings: Homo sapiens
OVCAR-8 = assay: NCI five-dose screen, OVCAR-8; format: cell-based; settings: Homo sapiens
DU-145 = assay: NCI five-dose screen, DU-145; format: cell-based; settings: Homo sapiens
SK-OV-3 = assay: NCI five-dose screen, SK-OV-3; format: cell-based; settings: Homo sapiens
A549/ATCC = assay: NCI five-dose screen, A549/ATCC; format: cell-based; settings: Homo sapiens
786–0 = assay: NCI five-dose screen, 786–0; format: cell-based; settings: Homo sapiens
M14 = assay: NCI five-dose screen, M14; format: cell-based; settings: Homo sapiens
HCT-15 = assay: NCI five-dose screen, HCT-15; format: cell-based; settings: Homo sapiens
MALME-3M = assay: NCI five-dose screen, MALME-3M; format: cell-based; settings: Homo sapiens
BT-549 = assay: NCI five-dose screen, BT-549; format: cell-based; settings: Homo sapiens
PC-3 = assay: NCI five-dose screen, PC-3; format: cell-based; settings: Homo sapiens
KM12 = assay: NCI five-dose screen, KM12; format: cell-based; settings: Homo sapiens
CCRF-CEM = assay: NCI five-dose screen, CCRF-CEM; format: cell-based; settings: Homo sapiens
SW-620 = assay: NCI five-dose screen, SW-620; format: cell-based; settings: Homo sapiens
HL-60 (TB) = assay: NCI five-dose screen, HL-60; format: cell-based; settings: Homo sapiens
in vitro = settings: human
EBOV = format: cell-based, Ebola virus; design: unit not given beside the values
ovariectomized rats = assay: Uterotrophic assay; format: in vivo, rat; settings: 10 μg/kg BW/day s.c. for 3 days
influenza A virus H1N1 = assay: Influenza A virus H1N1 screening, visual CPE inhibition; format: cell-based, influenza A virus H1N1 (California/07/2009)

CC/C(=C(\c1ccccc1)c1ccc(OCCN(C)C)cc1)c1ccccc1 [TAM, Tamoxifen]
AlkP activity (Ishikawa cells; 1 μM): 1.60 ± 0.55 | AlkP activity (Ishikawa cells; 10 μM): 1.02 ± 0.37 | GI50 (NCI/ADR-RES): 5.01 µM | GI50 (HOP-62): 10 µM | GI50 (HS 578T): 3.98 µM | GI50 (NCI-H226): 10 µM | GI50 (OVCAR-5): 6.31 µM | GI50 (RXF 393): 2.51 µM | GI50 (SK-MEL-28): 3.98 µM | GI50 (UACC-257): 3.16 µM | GI50 (CAKI-1): 3.98 µM | GI50 (IGROV1): 5.01 µM | GI50 (SK-MEL-2): 5.01 µM | GI50 (NCI-H23): 5.01 µM | GI50 (SNB-19): 6.31 µM | GI50 (COLO 205): 2.15 µM | GI50 (HCT-116): 3.98 µM | GI50 (ACHN): 6.31 µM | GI50 (U251): 3.16 µM | GI50 (SN12C): 3.98 µM | GI50 (MDA-MB-435): 3.16 µM | GI50 (OVCAR-4): 6.31 µM | GI50 (K-562): 1.99 µM | GI50 (HCC-2998): 3.16 µM | GI50 (MCF7): 1.58 µM | GI50 (UO-31): 6.31 µM | GI50 (SF-539): 5.01 µM | inhibition at 10 µM (60 NCI tumor cell lines): ≥ 100% | GI50 (SK-MEL-5): 2.51 µM | GI50 (NCI-H522): 6.31 µM | GI50 (MDA-MB-231/ATCC): 6.31 µM | GI50 (SF-295): 1.96 µM | GI50 (MOLT-4): 2.51 µM | inhibition at 10 µM (MCF-7): ≥ 100% | GI50 (UACC-62): 6.31 µM | GI50 (NCI-H460): 3.16 µM | GI50 (RPMI-8226): 2.51 µM | GI50 (SF-268): 6.31 µM | GI50 (A498): 6.31 µM | GI50 (OVCAR-3): 3.98 µM | GI50 (SNB-75): 5.01 µM | GI50 (T-47D): 2.51 µM | GI50 (LOX IMVI): 2.51 µM | GI50 (MDA-MB-468): 1.96 µM | GI50 (60 different cell lines; read-out: GI50, mean): 4.41 µM | GI50 (60 different cell lines; read-out: GI50, median): 3.98 µM | GI50 (SR): 1.26 µM | GI50 (TK-10): 3.98 µM | GI50 (HT29): 2.51 µM | GI50 (NCI-H322M): 7.94 µM | GI50 (EKVX): 6.31 µM | GI50 (HOP-92): 2.52 µM | GI50 (OVCAR-8): 7.94 µM | GI50 (DU-145): 6.31 µM | GI50 (SK-OV-3): 10 µM | GI50 (A549/ATCC): 3.98 µM | GI50 (786–0): 3.98 µM | GI50 (M14): 2.51 µM | GI50 (HCT-15): 3.16 µM | GI50 (MALME-3M): 3.16 µM | GI50 (BT-549): 6.31 µM | GI50 (PC-3): 3.16 µM | GI50 (KM12): 3.16 µM | GI50 (CCRF-CEM): 3.16 µM | GI50 (SW-620): 3.16 µM | GI50 (HL-60 (TB)): 2.51 µM

CC/C(=C(\c1ccc(O)cc1)c1ccc(OCCN(C)C)cc1)c1ccccc1 [Compound 4-OH-TAM, 4-hydroxytamoxifen]
AlkP activity (Ishikawa cells; 1 μM): 1.73 ± 0.46 | AlkP activity (Ishikawa cells; 10 μM): 0.60 ± 0.20

NC(=O)c1nc(F)c[nH]c1=O [favipiravir]
CC50 (in vitro): > 1000 µg/mL | SI90 (EBOV): >14

C[C@]12CC[C@@H]3c4ccc(O)cc4CC[C@H]3[C@@H]1CC[C@@H]2O [Compound E2, 17β-estradiol]
AlkP activity (Ishikawa cells; 10 nM): 6.86 ± 0.69 ^a | relative UWW, mean ± SD (ovariectomized rats): 3.85 ± 0.71 g/kg BW

NC(=O)c1ncn([C@@H]2O[C@H](CO)[C@@H](O)[C@H]2O)n1 [ribavirin]
EC50 (influenza A virus H1N1; Influenza A virus, H1N1, MDCK, read-out: EC50, visual CPE): 1 µg/mL (≈ 4.09 µM) | SI50 (CC50/EC50) (influenza A virus H1N1; visual CPE): >320 µg/mL
